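Dose response: 5 concentrations. Exposure: 48 h. Format: 96-well plates. Endpoint: linear interpolation; highest concentration if not reached. At the GI50, growth is halved. TGI: concentration producing complete growth inhibition.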
Assays:
Assay in all cases: NCI-60 cell line screen, 48 h
786-0 renal = tested on: 786-0 renal
A498 renal = tested on: A498 renal
A549 NSCLC = tested on: A549 NSCLC
ACHN renal = tested on: ACHN renal
BT-549 breast = tested on: BT-549 breast
CAKI-1 renal = tested on: CAKI-1 renal
CCRF-CEM leukemia = tested on: CCRF-CEM leukemia
COLO 205 colon = tested on: COLO 205 colon
DU-145 prostate = tested on: DU-145 prostate
EKVX NSCLC = tested on: EKVX NSCLC
HCC-2998 colon = tested on: HCC-2998 colon
HCT-116 colon = tested on: HCT-116 colon
HCT-15 colon = tested on: HCT-15 colon
HL-60(TB) leukemia = tested on: HL-60(TB) leukemia
HOP-62 NSCLC = tested on: HOP-62 NSCLC
HOP-92 NSCLC = tested on: HOP-92 NSCLC
HS 578T breast = tested on: HS 578T breast
HT29 colon = tested on: HT29 colon
IGROV1 ovarian = tested on: IGROV1 ovarian
K-562 leukemia = tested on: K-562 leukemia
KM12 colon = tested on: KM12 colon
LOX IMVI melanoma = tested on: LOX IMVI melanoma
M14 melanoma = tested on: M14 melanoma
MALME-3M melanoma = tested on: MALME-3M melanoma
MCF7 breast = tested on: MCF7 breast
MDA-MB-231 breast = tested on: MDA-MB-231 breast
MDA-MB-435 = tested on: MDA-MB-435
MOLT-4 leukemia = tested on: MOLT-4 leukemia
NCI-H226 lung = tested on: NCI-H226 lung
NCI-H23 lung = tested on: NCI-H23 lung
NCI-H460 lung = tested on: NCI-H460 lung
NCI-H522 lung = tested on: NCI-H522 lung
NCI/ADR-RES ovarian = tested on: NCI/ADR-RES ovarian
OVCAR-3 ovarian = tested on: OVCAR-3 ovarian
OVCAR-4 ovarian = tested on: OVCAR-4 ovarian
OVCAR-5 ovarian = tested on: OVCAR-5 ovarian
OVCAR-8 ovarian = tested on: OVCAR-8 ovarian
PC-3 prostate = tested on: PC-3 prostate
RPMI-8226 leukemia = tested on: RPMI-8226 leukemia
RXF 393 renal = tested on: RXF 393 renal
SF-268 CNS = tested on: SF-268 CNS
SF-295 CNS = tested on: SF-295 CNS
SF-539 CNS = tested on: SF-539 CNS
SK-MEL-2 melanoma = tested on: SK-MEL-2 melanoma
SK-MEL-28 melanoma = tested on: SK-MEL-28 melanoma
SK-MEL-5 melanoma = tested on: SK-MEL-5 melanoma
SK-OV-3 ovarian = tested on: SK-OV-3 ovarian
SN12C renal = tested on: SN12C renal
SNB-19 CNS = tested on: SNB-19 CNS
SNB-75 CNS = tested on: SNB-75 CNS
SR leukemia = tested on: SR leukemia
SW-620 colon = tested on: SW-620 colon
T-47D breast = tested on: T-47D breast
TK-10 renal = tested on: TK-10 renal
U251 CNS = tested on: U251 CNS
UACC-257 melanoma = tested on: UACC-257 melanoma
UACC-62 melanoma = tested on: UACC-62 melanoma
UO-31 renal = tested on: UO-31 renal

CN1CCN(Cc2ccc3c(NNC(=O)c4ccccc4)nc4cc(F)ccc4n23)CC1
GI50 (786-0 renal): 376 nM
TGI (786-0 renal): 17800 nM
GI50 (A498 renal): 658 nM
TGI (A498 renal): 8810 nM
GI50 (A549 NSCLC): 473 nM
TGI (A549 NSCLC): 21800 nM
GI50 (ACHN renal): 84.8 nM
TGI (ACHN renal): 11600 nM
GI50 (BT-549 breast): 870 nM
TGI (BT-549 breast): 57900 nM
GI50 (CAKI-1 renal): 248 nM
TGI (CAKI-1 renal): 14400 nM
GI50 (CCRF-CEM leukemia): 225 nM
TGI (CCRF-CEM leukemia): > 100000 nM
GI50 (COLO 205 colon): 325 nM
TGI (COLO 205 colon): 13600 nM
GI50 (DU-145 prostate): 663 nM
TGI (DU-145 prostate): > 100000 nM
GI50 (EKVX NSCLC): 170 nM
TGI (EKVX NSCLC): 16000 nM
GI50 (HCC-2998 colon): 526 nM
TGI (HCC-2998 colon): 49600 nM
GI50 (HCT-116 colon): 316 nM
TGI (HCT-116 colon): 16000 nM
GI50 (HCT-15 colon): 56.8 nM
TGI (HCT-15 colon): > 49400 nM
GI50 (HL-60(TB) leukemia): 335 nM
TGI (HL-60(TB) leukemia): 1910 nM
GI50 (HOP-62 NSCLC): 270 nM
TGI (HOP-62 NSCLC): > 100000 nM
GI50 (HOP-92 NSCLC): 1120 nM
TGI (HOP-92 NSCLC): 41500 nM
GI50 (HS 578T breast): 5730 nM
TGI (HS 578T breast): > 100000 nM
GI50 (HT29 colon): 587 nM
TGI (HT29 colon): > 49000 nM
GI50 (IGROV1 ovarian): 487 nM
TGI (IGROV1 ovarian): 49200 nM
GI50 (K-562 leukemia): 376 nM
TGI (K-562 leukemia): 21000 nM
GI50 (KM12 colon): 420 nM
TGI (KM12 colon): > 96400 nM
GI50 (LOX IMVI melanoma): 277 nM
TGI (LOX IMVI melanoma): 12600 nM
GI50 (M14 melanoma): 252 nM
TGI (M14 melanoma): 12900 nM
GI50 (MALME-3M melanoma): 584 nM
TGI (MALME-3M melanoma): 12700 nM
GI50 (MCF7 breast): 359 nM
TGI (MCF7 breast): 11800 nM
GI50 (MDA-MB-231 breast): 500 nM
TGI (MDA-MB-231 breast): 19200 nM
GI50 (MDA-MB-435): 599 nM
TGI (MDA-MB-435): > 66000 nM
GI50 (MOLT-4 leukemia): 291 nM
TGI (MOLT-4 leukemia): 20200 nM
GI50 (NCI-H226 lung): 442 nM
TGI (NCI-H226 lung): 9710 nM
GI50 (NCI-H23 lung): 989 nM
TGI (NCI-H23 lung): 29600 nM
GI50 (NCI-H460 lung): 195 nM
TGI (NCI-H460 lung): 11000 nM
GI50 (NCI-H522 lung): 550 nM
TGI (NCI-H522 lung): 12900 nM
GI50 (NCI/ADR-RES ovarian): 220 nM
GI50 (OVCAR-3 ovarian): 337 nM
TGI (OVCAR-3 ovarian): 40100 nM
GI50 (OVCAR-4 ovarian): 335 nM
TGI (OVCAR-4 ovarian): 37100 nM
GI50 (OVCAR-5 ovarian): 735 nM
TGI (OVCAR-5 ovarian): 70200 nM
GI50 (OVCAR-8 ovarian): 372 nM
TGI (OVCAR-8 ovarian): 46400 nM
GI50 (PC-3 prostate): 466 nM
TGI (PC-3 prostate): > 66700 nM
GI50 (RPMI-8226 leukemia): 574 nM
TGI (RPMI-8226 leukemia): 18100 nM
GI50 (RXF 393 renal): 683 nM
TGI (RXF 393 renal): 21300 nM
GI50 (SF-268 CNS): 454 nM
TGI (SF-268 CNS): > 100000 nM
GI50 (SF-295 CNS): 270 nM
TGI (SF-295 CNS): 4890 nM
GI50 (SF-539 CNS): 491 nM
TGI (SF-539 CNS): 8220 nM
GI50 (SK-MEL-2 melanoma): 2410 nM
TGI (SK-MEL-2 melanoma): > 70600 nM
GI50 (SK-MEL-28 melanoma): 566 nM
TGI (SK-MEL-28 melanoma): 17800 nM
GI50 (SK-MEL-5 melanoma): 577 nM
TGI (SK-MEL-5 melanoma): 3280 nM
GI50 (SK-OV-3 ovarian): 371 nM
TGI (SK-OV-3 ovarian): > 100000 nM
GI50 (SN12C renal): 551 nM
TGI (SN12C renal): > 100000 nM
GI50 (SNB-19 CNS): 587 nM
TGI (SNB-19 CNS): > 100000 nM
GI50 (SNB-75 CNS): 436 nM
TGI (SNB-75 CNS): > 25800 nM
GI50 (SR leukemia): 282 nM
TGI (SR leukemia): 15700 nM
GI50 (SW-620 colon): 519 nM
TGI (SW-620 colon): 22400 nM
GI50 (T-47D breast): 593 nM
TGI (T-47D breast): 22800 nM
GI50 (TK-10 renal): 252 nM
TGI (TK-10 renal): > 92500 nM
GI50 (U251 CNS): 373 nM
TGI (U251 CNS): 19000 nM
GI50 (UACC-257 melanoma): 848 nM
TGI (UACC-257 melanoma): 12500 nM
GI50 (UACC-62 melanoma): 360 nM
TGI (UACC-62 melanoma): 3490 nM
GI50 (UO-31 renal): 68.1 nM
TGI (UO-31 renal): 3790 nM

Reference: PubChem BioAssay (NCI)
